From PubChem BioAssay AID1259407 (Chemical Carcinogenesis Research Information System (CCRIS), 2018)
Active and inactive are the calls of the source. How the calls were made is not given here.

Tested on: CCRIS mutagenicity, Ames/micronucleus/aberration tests
Assay: CCRIS mutagenicity studies
[1] = Test System: AMES SALMONELLA TYPHIMURIUM, Strain/Indicator: TA98, Metabolic Activation: NONE, Method: PREINCUBATION
[2] = Test System: AMES SALMONELLA TYPHIMURIUM, Strain/Indicator: TA98, Metabolic Activation: NONE, Method: STANDARD PLATE
[3] = Test System: AMES SALMONELLA TYPHIMURIUM, Strain/Indicator: TA98, Metabolic Activation: RAT, LIVER, S-9, AROCLOR 1254, Method: STANDARD PLATE
[4] = Test System: AMES SALMONELLA TYPHIMURIUM, Strain/Indicator: TA98, Metabolic Activation: RAT, LIVER, S-9, PCB, Method: PREINCUBATION
[5] = Test System: AMES SALMONELLA TYPHIMURIUM, Strain/Indicator: TA100, Metabolic Activation: NONE, Method: PREINCUBATION
[6] = Test System: AMES SALMONELLA TYPHIMURIUM, Strain/Indicator: TA100, Metabolic Activation: NONE, Method: STANDARD PLATE
[7] = Test System: AMES SALMONELLA TYPHIMURIUM, Strain/Indicator: TA100, Metabolic Activation: RAT, LIVER, S-9, AROCLOR 1254, Method: STANDARD PLATE
[8] = Test System: AMES SALMONELLA TYPHIMURIUM, Strain/Indicator: TA100, Metabolic Activation: RAT, LIVER, S-9, PCB, Method: PREINCUBATION
[9] = Test System: AMES SALMONELLA TYPHIMURIUM, Strain/Indicator: TA1535, Metabolic Activation: NONE, Method: STANDARD PLATE
[10] = Test System: AMES SALMONELLA TYPHIMURIUM, Strain/Indicator: TA1535, Metabolic Activation: RAT, LIVER, S-9, AROCLOR 1254, Method: STANDARD PLATE
[11] = Test System: AMES SALMONELLA TYPHIMURIUM, Strain/Indicator: TA1537, Metabolic Activation: NONE, Method: STANDARD PLATE
[12] = Test System: AMES SALMONELLA TYPHIMURIUM, Strain/Indicator: TA1537, Metabolic Activation: RAT, LIVER, S-9, AROCLOR 1254, Method: STANDARD PLATE
[13] = Test System: E. COLI, Strain/Indicator: WP2 UVRA, Metabolic Activation: NONE, Method: PREINCUBATION

O=C(CBr)c1ccccc1
mutagenic call (Test System: AMES SALMONELLA TYPHIMURIUM, Strain/Indicator: TA98, Metabolic Activation: HAMSTER, LIVER, S-9, AROCLOR 1254, Method: STANDARD PLATE): inactive; negative | mutagenic call [1]: inactive; negative | mutagenic call [2]: inactive; negative | mutagenic call [3]: inactive; negative | mutagenic call [4]: inactive; negative | mutagenic call (Test System: AMES SALMONELLA TYPHIMURIUM, Strain/Indicator: TA100, Metabolic Activation: HAMSTER, LIVER, S-9, AROCLOR 1254, Method: STANDARD PLATE): inactive; negative | mutagenic call [5]: inactive; negative | mutagenic call [6]: inactive; negative | mutagenic call [7]: inactive; negative | mutagenic call [8]: inactive; negative | mutagenic call (Test System: AMES SALMONELLA TYPHIMURIUM, Strain/Indicator: TA1535, Metabolic Activation: HAMSTER, LIVER, S-9, AROCLOR 1254, Method: STANDARD PLATE): inactive; negative | mutagenic call [9]: inactive; negative | mutagenic call [10]: inactive; negative | mutagenic call (Test System: AMES SALMONELLA TYPHIMURIUM, Strain/Indicator: TA1537, Metabolic Activation: HAMSTER, LIVER, S-9, AROCLOR 1254, Method: STANDARD PLATE): inactive; negative | mutagenic call [11]: inactive; negative | mutagenic call [12]: inactive; negative | mutagenic call (Test System: AMES SALMONELLA TYPHIMURIUM, Strain/Indicator: TA1538, Metabolic Activation: HAMSTER, LIVER, S-9, AROCLOR 1254, Method: STANDARD PLATE): inactive; negative | mutagenic call (Test System: AMES SALMONELLA TYPHIMURIUM, Strain/Indicator: TA1538, Metabolic Activation: NONE, Method: STANDARD PLATE): inactive; negative | mutagenic call (Test System: AMES SALMONELLA TYPHIMURIUM, Strain/Indicator: TA1538, Metabolic Activation: RAT, LIVER, S-9, AROCLOR 1254, Method: STANDARD PLATE): inactive; negative | mutagenic call [13]: inactive; negative | mutagenic call (Test System: MOUSE LYMPHOMA, Strain/Indicator: L5178Y (TK+/TK-), Metabolic Activation: NONE, Method: SUSPENSION/PLATE): inactive; negative. reevaluation of results: negative | mutagenic call (Test System: MOUSE LYMPHOMA, Strain/Indicator: L5178Y (TK+/TK-), Metabolic Activation: RAT, LIVER, S-9, AROCLOR 1254, Method: SUSPENSION/PLATE): active; positive. reevaluation of results: inconclusive

CCCCOc1cc(Br)ccc1C(=O)NOC(C)=O
mutagenic call [6]: active; positive | mutagenic call (Test System: AMES SALMONELLA TYPHIMURIUM, Strain/Indicator: TA100, Metabolic Activation: RAT, S-9, AROCLOR, Method: STANDARD PLATE): active; positive

O=C(OCc1ccc(Cl)cc1Cl)c1cccc2cccnc12
mutagenic call [2]: inactive; negative | mutagenic call [3]: inactive; negative | mutagenic call [6]: inactive; negative | mutagenic call [7]: inactive; negative | mutagenic call [9]: inactive; negative | mutagenic call [10]: inactive; negative | mutagenic call [11]: inactive; negative | mutagenic call [12]: inactive; negative

CSc1ncnc2nc[nH]c12
mutagenic call [6]: active; positive

c1ccc2c(c1)ccc1c2ccc2c3ccccc3ccc21
mutagenic call (Test System: AMES SALMONELLA TYPHIMURIUM, Strain/Indicator: TA100, Metabolic Activation: MOUSE, LIVER, S-10, AROCLOR 1254): active; positive

Nc1nc(-c2cccc([N+](=O)[O-])c2)nc2c1ncn2[C@@H]1O[C@H](CO)[C@@H](O)[C@H]1O
mutagenic call [1]: inactive; negative | mutagenic call [4]: inactive; negative | mutagenic call [5]: active; positive | mutagenic call [8]: active; positive

O=C1c2ccccc2-c2ccc3ccc4ccccc4c3c21
mutagenic call [7]: inactive; negative

CCCCCCC(C)(C)C(=O)OCC1CO1 (stereo unspecified)
mutagenic call (Test System: AMES SALMONELLA TYPHIMURIUM, Strain/Indicator: TA100, Metabolic Activation: HAMSTER, LIVER, S-9, AROCLOR 1254 (30%), Method: PREINCUBATION): active; positive | mutagenic call [5]: inactive; negative | mutagenic call (Test System: AMES SALMONELLA TYPHIMURIUM, Strain/Indicator: TA100, Metabolic Activation: RAT, LIVER, S-9, AROCLOR 1254 (30%), Method: PREINCUBATION): active; positive | mutagenic call (Test System: AMES SALMONELLA TYPHIMURIUM, Strain/Indicator: TA1535, Metabolic Activation: HAMSTER, LIVER, S-9, AROCLOR 1254 (30%), Method: PREINCUBATION): active; positive | mutagenic call (Test System: AMES SALMONELLA TYPHIMURIUM, Strain/Indicator: TA1535, Metabolic Activation: NONE, Method: PREINCUBATION): inactive; negative | mutagenic call (Test System: AMES SALMONELLA TYPHIMURIUM, Strain/Indicator: TA1535, Metabolic Activation: RAT, LIVER, S-9, AROCLOR 1254 (30%), Method: PREINCUBATION): active; positive

CN[C@H]1[C@@H](O[C@@H]2C3CC#CC4O[C@@]4(C4COC(=O)O4)C#CC3=C[C@H]2OC(=O)c2c(O)ccc3c(C)cc(OC)cc23)O[C@H](C)[C@H](O)[C@@H]1O (stereo partly specified)
mutagenic call [2]: inactive; negative | mutagenic call [6]: inactive; negative | mutagenic call (Test System: CHINESE HAMSTER OVARY, Strain/Indicator: CHO-D422 (APRT)/8-AZAADENINE, Metabolic Activation: NONE): active; positive | mutagenic call (Test System: CHINESE HAMSTER OVARY, Strain/Indicator: CHO-K1/6-THIOGUANINE, Metabolic Activation: NONE): active; positive | mutagenic call (Test System: E. COLI, Strain/Indicator: WP2 (HCR), Metabolic Activation: NONE, Method: STANDARD PLATE): active; positive | mutagenic call (Test System: E. COLI, Strain/Indicator: WP2, Metabolic Activation: NONE, Method: PREINCUBATION): active; positive | mutagenic call (Test System: E. COLI, Strain/Indicator: WP2, Metabolic Activation: NONE, Method: SPOT): active; positive | mutagenic call [13]: active; positive | mutagenic call (Test System: E. COLI, Strain/Indicator: WP2 UVRA, Metabolic Activation: NONE, Method: SPOT): active; positive | mutagenic call (Test System: UDS HUMAN CELLS, Strain/Indicator: THY INCORP (NON-S-PHASE), Metabolic Activation: NONE, Method: AUTORADIOGRAPHY): active; positive | mutagenic call (Test System: UDS HUMAN CELLS, Strain/Indicator: THY INCORP (NON-S-PHASE), Metabolic Activation: NONE, Method: LIQUID SCINTILLATION COUNTING): active; positive
